From patent publication US8642774B2, “Compounds” (Boehringer Ingelheim International GmbH, priority 2011, dated 2014) come the findings set out here.

This experiment has as its target T1, human recombinant mGluR5 (Homo sapiens, UniProt P41594).
T1 construct: expressed in transfected cells; host or cells: HEK 293 cell line, cultured with tetracycline, hygromycin and geneticin; tetracycline is withdrawn 3-7 days before the assay
The experiment is described as follows: positive modulation of mGluR5, calcium based FLIPR assay. In kind it is cell-based. The conditions noted are these: EC50 of the modulation; HEK 293 cell line expressing human recombinant mGluR5; peak height of Ca fluorescence signal after glutamate at approx. 5% basal stimulation; read-out: EC50. The procedure:
The positive modulation of mGluR5 is measured in a HEK 293 cell line expressing human recombinant mGluR5 and is detected with calcium based FLIPR assay. The cells are cultured with DMEM supplemented with 10% FCS, 2 μg/mL tetracycline, 100 μg/mL hygromycin and 500 μg/mL gneticin. The cell culture media is exchanged for tetracycline-free cell culture media 3-7 days before the assay. One day before the assay the cell culture medium is exchanged to DMEM without glutamine and phenol red and supplemented with 10% FCS, 100 μg/mL hygromycin and 500 μg/mL geneticin. On the assay day, the medium of the subconfluent cultures is removed and the cells are detached by addition of 2.5 ml EDTA (0.02%) per 175 cm2 culture flask for 1 minute. The cells are resuspend in Ringer solution (140 mM NaCl, 5 mM KCl, 2.5 mM CaCl2, 1.5 mM MgCl2, 5 mM Glucose, 10 mM Hepes; adjusted to pH 7.4 with NaOH), pooled and Ringer solution added to adjust the volume to 50 mL. The cell suspension is centrifuged for 5 min at 1500 U/min (425 g). The supernatant is removed and the cells washed a second time with 50 ml fresh Ringer solution and centrifuged again as before. The supernatant is again removed and the pellet resuspended in Ringer solution to 1,000,000 cells/ml (1×10^6 cells/mL). The cells are plated onto BD BioCoat Poly-D-Lysine 384 well plates (20.000 cells/well; 20 μl/well). The lid covered plates are then incubated until use at 37° C./10% CO2. For dye loading, 20 μl of Calcium-4 assay kit solution (prepared according to the manufacturer's description in Ringer solution) are added to the cells and the plates are incubated for 80 min 37° C. and then 10 min at room temperature. • Controls, Compound dilution and assay execution: • Each assay plate contained wells with “high” and “low” controls:
Low controls 1% DMSO/ringer solution+basal glutamate activation (defined as 100% CTL).
High controls 10 μM CDPPB+basal glutamate activation (defined as 200% CTL).
Test compounds are dissolved and diluted in DMSO to 100-fold the desired concentrations. In a second step, the compounds are diluted in Ringer solution such that the compounds are 4-fold more concentrated than the desired final assay concentration. The final DMSO concentration was 1%.
20 μl of each compound solution are then transferred to the assay plate and the Ca2+ kinetic is measured to determine any intrinsic compound activity. After 5 min incubation in the FLIPR device, the second stimulation with 20 μl of glutamate in Ringer solution (glutamate concentration adjusted to approximately 5% basal stimulation of the maximal possible glutamate effect) is added and the kinetic Ca2+ response of the wells was measured for the modulation effect.
The peak height of the Ca release related fluorescence signal (9-66) is used for the EC50. The EC50 of the modulation is calculated over a nonlinear regression with GraphPad Prism (Table 1).

T1 sequence (P41594 21-1212): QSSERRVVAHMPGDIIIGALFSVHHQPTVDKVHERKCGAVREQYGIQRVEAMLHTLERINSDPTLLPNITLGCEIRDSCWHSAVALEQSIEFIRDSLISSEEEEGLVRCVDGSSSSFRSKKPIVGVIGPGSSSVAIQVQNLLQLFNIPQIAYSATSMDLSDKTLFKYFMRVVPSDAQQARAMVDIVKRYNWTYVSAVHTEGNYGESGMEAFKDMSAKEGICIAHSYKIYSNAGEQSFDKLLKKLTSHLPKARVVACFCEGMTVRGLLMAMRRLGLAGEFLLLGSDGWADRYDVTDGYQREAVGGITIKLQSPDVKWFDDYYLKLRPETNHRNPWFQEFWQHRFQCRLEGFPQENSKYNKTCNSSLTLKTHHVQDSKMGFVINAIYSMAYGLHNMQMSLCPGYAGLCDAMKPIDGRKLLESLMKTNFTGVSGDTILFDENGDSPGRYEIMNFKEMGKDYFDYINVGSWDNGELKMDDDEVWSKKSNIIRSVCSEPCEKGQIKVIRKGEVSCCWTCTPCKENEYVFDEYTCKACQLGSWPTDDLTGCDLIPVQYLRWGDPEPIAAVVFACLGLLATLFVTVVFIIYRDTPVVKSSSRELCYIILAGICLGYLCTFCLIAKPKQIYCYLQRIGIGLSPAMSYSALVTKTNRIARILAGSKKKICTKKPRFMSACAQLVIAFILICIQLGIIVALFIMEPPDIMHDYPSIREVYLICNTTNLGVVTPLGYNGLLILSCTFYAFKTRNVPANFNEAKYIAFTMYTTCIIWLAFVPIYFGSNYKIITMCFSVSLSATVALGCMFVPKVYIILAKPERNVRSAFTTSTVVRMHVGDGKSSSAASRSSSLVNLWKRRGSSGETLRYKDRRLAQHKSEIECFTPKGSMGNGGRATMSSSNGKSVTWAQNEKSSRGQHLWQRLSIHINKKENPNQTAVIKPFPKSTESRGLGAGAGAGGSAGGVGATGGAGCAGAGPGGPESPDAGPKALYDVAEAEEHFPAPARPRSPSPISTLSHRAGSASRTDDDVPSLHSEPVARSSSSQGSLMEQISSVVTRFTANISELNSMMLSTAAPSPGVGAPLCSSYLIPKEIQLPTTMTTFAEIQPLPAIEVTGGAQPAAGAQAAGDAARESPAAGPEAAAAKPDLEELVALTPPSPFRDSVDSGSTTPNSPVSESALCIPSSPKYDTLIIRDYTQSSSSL

Regarding `Cc1nc2c(s1)CC(C)N(C(=O)Cn1nc(-c3ccc(F)cc3)nc1-c1ccc(F)cc1)CC2` (stereo not shown) [Example 7.03.121.], the EC50 (usually the concentration needed to bring the measured effect to its halfway point) is 259 nM.

With `N#Cc1ccc(Cl)cc1NC1CCN(C(=O)Cn2nc(-c3ccc(F)cc3)nc2-c2ccc(F)cc2)CC1` [Example 7.02.24.], the EC50 is 560 nM.

For the molecule `C=CCNC(=O)Nc1nc2c(s1)CN(C(=O)Cn1nc(-c3ccc(F)cc3)nc1-c1ccc(F)cc1)CC2` [Example 7.02.29.], the EC50 was determined as 504 nM. Then `Cc1cc(-c2nc(C3CCCC3)n(CC(=O)N3CCc4nc(N)sc4CC3)n2)ccc1F` [Example 7.03.106.], with 251 nM; and `Cc1nc2c(s1)CCN(C(=O)Cn1nc(-c3ccc(F)c(C)c3)nc1C1CCCCC1C)CC2` (stereo not shown) [Example 7.03.093.], with 433 nM. As to `COc1nc2c(s1)CCN(C(=O)Cn1nc(-c3ccc(F)c(C)c3)nc1-c1ccccc1)CC2` [Example 7.02.85.], the EC50 amounted to 33 nM. On to `Cc1nc2c(o1)CN(C(=O)Cn1nc(-c3ccc(F)cc3)nc1-c1ccc(F)cc1)C2` [Example 7.03.124], for which the EC50 came out at 61 nM.

For `Cc1nc2c(s1)CCN(C(=O)Cn1nc(-c3ccc(OC(F)F)cc3)nc1-c1ccccc1)CC2` [Example 7.03.127], the EC50 amounted to 40 nM.

In the case of `Cc1nc2c(s1)CCN(C(=O)Cn1nc(-c3ccc(F)cc3)nc1-c1ccc(F)cn1)CC2` [Example 7.03.117.], the EC50 is 889 nM. To `CC(=O)Nc1nc2c(s1)CCN(C(=O)Cn1nc(-c3ccc(F)cc3)nc1-c1ccc(F)cc1)CC2` [Example 7.02.07.] belongs 1200 nM. Then `Cc1noc(C2CCN(C(=O)Cn3nc(-c4ccc(F)cc4)nc3-c3ccc(F)cc3)CC2)n1` [Example 7.02.38.], with 1150 nM; and `CCCc1nc(-c2ccc(OC(F)F)cc2)nn1CC(=O)N1CCc2nc(C)sc2CC1` [Example 7.03.131], with 316 nM; and `O=C(Cn1nc(-c2ccc(F)cc2)nc1-c1ccc(F)cc1)N1CCc2ccccc2CC1` [Example 7.02.12.], with 1020 nM.

For the molecule `Cc1nc2c(o1)CN(C(=O)Cn1nc(-c3ccc(F)c(C)c3)nc1-c1ccccc1)C2` [Example 7.03.123], the EC50 turned out to be 31 nM.

Regarding `O=C(Cn1nc(-c2ccc(F)cc2)nc1-c1ccc(F)cc1)N1CCC(c2nnc(-c3ccccc3)o2)CC1` [Example 7.03.008.], the EC50 came to 752 nM.

Consider `Cc1nc2c(s1)CCN(C(=O)Cn1nc(-c3ccc(F)c(C)c3)nc1C1CCCC(C)C1)CC2` (stereo not shown) [Example 7.03.096.], for which the EC50 was 355 nM.

For `O=C(Cn1nc(-c2ccc(F)cc2)nc1-c1ccc(F)cc1)N1CCc2cc(O)ccc2C1` [Example 7.02.53.], the EC50 amounted to 229 nM. To `Cc1nc(C2CCN(C(=O)Cn3nc(-c4ccc(F)cc4)nc3-c3ccc(F)cc3)CC2)oc1C` [Example 7.03.003.] belongs 851 nM; to `CC(C)c1nnc(N2CCN(C(=O)Cn3nc(-c4ccc(F)cc4)nc3-c3ccc(F)cc3)CC2)o1` [Example 7.03.043.], 139 nM.

Take `O=C(Cn1nc(-c2ccc(F)cc2)nc1-c1ccc(F)cc1)N1CCC(N2Cc3c(Cl)cccc3NC2=O)CC1` [Example 7.02.35.]: the EC50 was 1420 nM. As to `Cc1cc(-c2nc(C3CCC(C)CC3)n(CC(=O)N3CCc4nc(N)sc4CC3)n2)ccc1F` (stereo not shown) [Example 7.03.092.], the EC50 was found to be 1160 nM. With `Cc1cc(-c2nc(-c3ccccc3)n(CC(=O)N3CCc4nc(N)sc4CC3)n2)ccc1F` [Example 7.03.065.], the EC50 stood at 95 nM. Consider `Cn1ncc2c1CN(C(=O)Cn1nc(-c3ccc(F)cc3)nc1-c1ccc(F)cc1)C2` [Example 7.02.49.], for which the EC50 came to 1360 nM. Regarding `CCCc1nc(-c2ccc(F)c(C)c2)nn1CC(=O)N1CCc2nc(C)sc2CC1` [Example 7.03.070.], the EC50 came to 457 nM. Then `CCc1nc(-c2ccc(OC(F)F)cc2)nn1CC(=O)N1CCc2nc(C)sc2CC1` [Example 7.03.126], with 201 nM; and `Cc1nc2c(s1)CCN(C(=O)Cn1nc(-c3ccc(F)c(C)c3)nc1CCC(C)C)CC2` [Example 7.03.114.], with 102 nM; and `Cc1cc(-c2nc(-c3ccccc3)n(CC(=O)N3CCc4ncnc(-c5ccccc5)c4CC3)n2)ccc1F` [Example 7.02.80.], with 323 nM. With `O=C(Cn1nc(-c2ccc(F)cc2)nc1-c1ccc(F)cc1)N1Cc2ccncc2C1` [Example 7.02.40.], the EC50 worked out at 1760 nM. `CCCCc1nc(-c2ccc(F)c(C)c2)nn1CC(=O)N1Cc2nc(C)sc2C1` [Example 7.03.101.]: the concentration giving a half-maximal response (EC50) was determined as 382 nM. Consider `O=C(Cn1nc(-c2ccc(F)cc2)nc1-c1ccc(F)cc1)N1CCc2ccc(Cl)nc2CC1` [Example 7.03.028.], for which the half-maximal effective concentration (EC50) was 117 nM. To `COc1ccc2c(c1)CN(C(=O)Cn1nc(-c3ccc(F)cc3)nc1-c1ccc(F)cc1)CC2` [Example 7.02.41.] belongs 1270 nM.

Turning to `O=C(Cn1nc(-c2ccc(F)cc2)nc1-c1ccc(F)cc1)N1CCC(c2nnc(-c3ccc(F)cc3)o2)CC1` [Example 7.02.22.], the EC50 came out at 746 nM. With `CCCCCc1nc(-c2ccc(F)c(C)c2)nn1CC(=O)N1CCc2nc(N)sc2CC1` [Example 7.03.111.], the EC50 came out at 90 nM. Take `CC(C)c1nnc(C2CCN(C(=O)Cn3nc(-c4ccc(F)cc4)nc3-c3ccc(F)cc3)CC2)o1` [Example 7.03.033.]: the EC50 turned out to be 474 nM. `O=C(Cn1nc(-c2ccc(F)cc2)nc1-c1ccc(F)cc1)N1CCc2nc(C3CCCCC3)sc2CC1` [Example 7.03.032.]: the EC50 came out at 868 nM.

In the case of `O=C(Cn1nc(-c2ccc(F)cc2)nc1-c1ccc(F)cc1)N1CC=C(c2ccccc2)CC1` [Example 7.02.66.], the EC50 stood at 559 nM.

As for `COc1ccc2c(c1)CN(C(=O)Cn1nc(-c3ccc(F)cc3)nc1-c1ccc(F)cc1)C2` [Example 7.02.47.], the EC50 came out at 206 nM.

Consider `O=C(Cn1nc(-c2ccc(F)cc2)nc1-c1ccc(F)cc1)N1CCC(c2ncco2)CC1` [Example 7.03.038.], for which the EC50 was 75 nM. Then `Cc1nc2c(o1)CCN(C(=O)Cn1nc(-c3ccc(F)cc3)nc1-c1ccc(F)cc1)C2` [Example 7.02.65.], with 407 nM; and `COc1ccc(-c2nc(-c3ccc(F)cc3)n(CC(=O)N3CCc4nc(C)sc4CC3)n2)cc1` [Example 7.03.056.], with 63 nM.

Consider `Cc1nc2c(s1)CN(C(=O)Cn1nc(-c3ccc(F)c(C)c3)nc1C1CCCC1)C2` [Example 7.03.105.], for which the EC50 was found to be 870 nM.

Turning to `Cc1cc(-c2nc(-c3ccccc3)n(CC(=O)N3CCc4ncsc4CC3)n2)ccc1F` [Example 7.02.87.], the EC50 is 58.8 nM. To `Cc1nc2c(o1)CN(C(=O)Cn1nc(-c3ccc(F)c(C)c3)nc1C1CCCCC1)CC2` [Example 7.03.059.] belongs 540 nM. Turning to `O=C(Cn1nc(-c2ccc(F)cc2)nc1-c1ccc(F)cc1)N1CC(c2ccccn2)C1` [Example 7.02.72.], the EC50 worked out at 774 nM.

As for `O=C(Cn1nc(-c2ccc(F)cc2)nc1-c1ccc(F)cc1)N1CCC(n2nc(-c3cccs3)ccc2=O)CC1` [Example 7.02.31.], the EC50 came out at 1780 nM. For the molecule `Cc1cc(-c2nc(CCC(C)C)n(CC(=O)N3CCc4nc(N)sc4CC3)n2)ccc1F` [Example 7.03.112.], the EC50 was 147 nM. Regarding `CCCCCc1nc(-c2ccc(F)c(C)c2)nn1CC(=O)N1CCc2nc(C)sc2CC1` [Example 7.03.110.], the EC50 turned out to be 55 nM. On to `CCCCc1nc(-c2ccc(F)c(C)c2)nn1CC(=O)N1CCc2nc(C)sc2CC1` [Example 7.03.103.], for which the EC50 was 113 nM. Turning to `O=C(Cn1nc(-c2ccc(F)cc2)nc1-c1ccc(F)cc1)N1CCN(c2nnc(C(F)(F)F)s2)CC1` [Example 7.02.68.], the EC50 is 198 nM. Consider `Cc1ccnc(C2=CCN(C(=O)Cn3nc(-c4ccc(F)c(C)c4)nc3C(C)C)CC2)c1` [Example 7.03.078.], for which the EC50 was determined as 803 nM. Then `O=C(Cn1nc(-c2ccc(F)cc2)nc1-c1ccc(F)cc1)N1CCc2ncsc2C1` [Example 7.02.43.], with 1640 nM; and `COc1cc(-c2nc(-c3ccc(F)cc3)n(CC(=O)N3CCc4nc(C)sc4CC3)n2)ccc1F` [Example 7.03.089.], with 71 nM.
